Read-outs that look alike come from different tables or passages of the source.
Target: PxutCSP19 (Papilio xuthus, UniProt A0A194QJK0)
Experiment: Fluorescence competitive binding assay (1-NPN displacement), wildtype PxutCSP19
Settings: for inhibition at 20 µM: read-out: F.D. (fluorescent displacement rate of ligands), Wildtype (WT); for inhibition at 20 µM / F.D. (fluorescent displacement rate of ligands): ligand at 20 μM, PxutCSP19/1-NPN each 2 μM, NB = no binding; for 1-NPN fluorescence displaced / binding with PxutCSP19 (in words): wildtype; for 1-NPN fluorescence displaced: ligand at 36 μM
Text: The open reading frame (ORF) of PxutCSP19 was cloned with a PrimeSTAR®® Max DNA Polymerase (TaKaRa, Liaoning, Dalian, China) and gene-specific primers containing restriction enzyme sites (BamH I and Xho I) (Table S2). The PCR products were detected on a 1.5% (w/v) agarose gel, and the expected bands were cut and purified using a HiPure Gel Pure DNA Mini Kit (Magen, Guangzhou, China). Next, BamH I and Xho I were used to digest the PxutCSP19 products and pET-30a (+) plasmids, followed by purification. A T4 DNA ligase (Thermo Fisher Scientific, Waltham, MA, USA) was applied to the construction of the recombinant plasmids pET-30a (+)/PxutCSP19. After being confirmed by sequencing, the plasmids were transformed into BL21 (DE3) competent cells so as to express recombinant proteins with 1.0 mM isopropyl β-D-thiogalactoside (IPTG). Because this recombinant protein pET-30a (+)/PxutCSP19 was insoluble, we applied a protein denaturation–renaturation approach to purify PxutCSP19 with an affinity chromatography technique, in which the denaturation buffer included 8 M urea and 1.0 mM β-mercaptoethanol.
In order to investigate the ligand-binding properties of PxutCSP19 to host odorants and insecticides, we first asked whether this fluorescent probe 1-NPN was available for the binding of PxutCSP19. To calculate the binding ability of PxutCSP19 to 1-NPN, we titrated different final concentrations of 1-NPN (2~20 μM) into Tris-HCl buffer (pH 7.4) containing 2 μM PxutCSP19. The binding constant (K1-NPN) of 1-NPN to this protein was determined with GraphPad Prism 7 (GraphPad Software Inc., San Diego, CA), as previously described. The solution was excited at 337 nm and the emission peak was monitored at 414 nm on an RF-5301PC spectrofluorometer (Shimadzu, Kyoto, Japan) using a quartz micro-cuvette filled with a 100 μL mixture, with 5 nm excitation and emission slit widths. If the host odorant molecules could displace more than 40% of the 1-NPN fluorescence from the binding cavity of PxutCSP19, the compounds would be continuously added up to 36 μM with triplicates. For the binding experiments, each compound would be added into the PxutCSP19/1-NPN (each 2 μM) complex with final concentrations of 2~20 μM. […] We used the Ki values to compare the binding affinities of various ligands with the equation: Ki = [IC50]/(1 + [1-NPN]/K1-NPN), where IC50 represents the ligand concentrations displacing one half of the initial protein/1-NPN fluorescence, and [1-NPN] is the free concentration of 1-NPN at 2 μM.

[1] = Wildtype (WT), ligand up to 20 μM or 36 μM, displacing half of protein/1-NPN fluorescence, read-out: IC50

Sequence of PxutCSP19 (A0A194QJK0 entry or part of it): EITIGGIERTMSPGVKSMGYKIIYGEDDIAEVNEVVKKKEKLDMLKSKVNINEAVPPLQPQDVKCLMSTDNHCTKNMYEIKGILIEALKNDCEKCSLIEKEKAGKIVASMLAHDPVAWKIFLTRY

Compound | IC50 | inhibition at 20 µM | other results
C=CC(C)(O)CCC=C(C)CCC=C(C)C (mixture of isomers) [Nerolidol] | > 20 µM | 12.4% | 
CCCCCCO [1-Hexanol] | > 20 µM | 39% | 
CC1=CCC2C(C1)C2(C)C (stereo not drawn) [3-Carene] | > 20 µM | 35.1% | 
CC1=CCC(O)(C(C)C)CC1 (stereo not drawn) [4-Terpineol] | > 36 µM | > 40% | 1-NPN fluorescence displaced: less than 50%
CC1=CC[C@@H]2C[C@H]1C2(C)C [(1R)-(+)-α-Pinene] | > 20 µM | 38.4% | 
CCC/C=C/CO [(E)-2-Hexen-1-ol] | > 20 µM | 35.6% | 
CCC/C=C/C=O [(E)-2-Hexenal] | > 20 µM | 33.8% | 
CC/C=C\CCO [(Z)-3-Hexen-1-ol] | > 20 µM | 35.8% | 
COP(=O)(NC(C)=O)SC (stereo not drawn) [Acephate, reference compound] | > 20 µM | 37.1% | 
C/C(=N\C#N)N(C)Cc1ccc(Cl)nc1 [Acetamiprid, reference compound] | > 20 µM | 42.9% | 
C/C=C(\C)C(=O)O[C@H]1C[C@@H](OC(C)=O)[C@@]2(C(=O)OC)CO[C@H]3[C@@H](O)[C@@](C)([C@]45O[C@@]4(C)[C@H]4C[C@@H]5O[C@@H]5OC=C[C@@]54O)[C@H]4[C@]1(CO[C@]4(O)C(=O)OC)[C@@H]32 [Azadirachtin, reference compound] | > 20 µM | 34.5% | 
O=Cc1ccccc1 [Benzaldehyde] | > 20 µM | 36.9% | 
C=C1C2CCC(C2)C1(C)C (stereo not drawn) [Camphene] | > 20 µM | 34.5% | 
Cc1ccc(C(C)C)cc1O [Carvacrol] | > 20 µM | 37.4% | 
CNC(=O)c1cc(Cl)cc(C)c1NC(=O)c1cc(Br)nn1-c1ncccc1Cl [Chlorantraniliprole, reference compound] | > 20 µM | 43.6% | 
O=C(NC(=O)c1ccccc1Cl)Nc1ccc(Cl)cc1 [Chlorbenzuron, reference compound] |  |  | F.D. (fluorescent displacement rate of ligands) (Wildtype (WT)): 42.75%; IC50 [1]: > 20 µM
CC(C)=CCC/C(C)=C/C=O [Citral] | > 20 µM | 39.7% | 
CC(C)=CCC[C@@H](C)CC=O [Citronellal] |  |  | F.D. (fluorescent displacement rate of ligands) (Wildtype (WT)): 34.20%; IC50 [1]: > 20 µM
CCCCCCCCCC=O [Decanal] | > 20 µM | 28.7% | 
CC1(C)[C@H](C(=O)O[C@H](C#N)c2cccc(Oc3ccccc3)c2)[C@@H]1C=C(Br)Br [Deltamethrin, reference compound] | > 20 µM | 39.3% | 
O=C(NC(=O)c1c(F)cccc1F)Nc1ccc(Cl)cc1 [Diflubenzuron, reference compound] | > 20 µM | 27% | 

Compound | IC50 | inhibition at 20 µM | other results
CCOC(C)=O [Ethyl acetate] | > 20 µM | 37.6% | 
CCCC(=O)OCC [Ethyl butyrate] | > 20 µM | 28.7% | 
CC(C)=CCC/C(C)=C/CC/C(C)=C/CO [Farnesol] | > 20 µM | 27% | 
N#Cc1nn(-c2c(Cl)cc(C(F)(F)F)cc2Cl)c(N)c1[S+]([O-])C(F)(F)F (stereo not drawn) [Fipronil, reference compound] | > 20 µM | 37.5% | 
CC(C)=CCC/C(C)=C/CO [Geraniol] |  | 39% | 
CC(=O)OC/C=C(\C)CCC=C(C)C [Geranyl acetate] | > 20 µM | 33.3% | 
CCCCCC=O [Hexanal] | > 20 µM | 21.1% | 
O=[N+]([O-])NC1=NCCN1Cc1ccc(Cl)nc1 [Imidacloprid, reference compound] | > 20 µM | 41.7% | 
c1ccc2[nH]ccc2c1 [Indole] | > 20 µM | 39% | 
C=C(C)[C@H]1CC=C(C)CC1 [Limonene] |  |  | F.D. (fluorescent displacement rate of ligands) (Wildtype (WT)): 20.36%; IC50 [1]: > 20 µM
O=C1CCC[C@@H]2[C@H]3CCCN4CCC[C@@H](CN12)[C@@H]34 [Matrine, reference compound] | > 20 µM | 40% | 
CNC(=O)ON=C(C)SC [Methomyl, reference compound] | > 20 µM | 45.4% | 
COC(=O)c1ccccc1C [Methyl o-toluate] |  |  | F.D. (fluorescent displacement rate of ligands) (Wildtype (WT)): 37.28%; IC50 [1]: > 20 µM
C=CC(=C)CCC=C(C)C [Myrcene] | > 20 µM | 32.4% | 
CCCCCCCCC=O [Nonanal] | > 20 µM | 29.3% | 
CCCCCCCC=O [Octanal] | > 20 µM | 22.8% | 
OCCc1ccccc1 [Phenethyl alcohol] | > 20 µM | 39.7% | 
O=CCc1ccccc1 [Phenylacetaldehyde] | > 20 µM | 27.3% | 
CCCSP(=O)(OCC)Oc1ccc(Br)cc1Cl (stereo not drawn) [Profenofos, reference compound] | > 20 µM | 41% | 
CC1(C)[C@H]2O[C@H]2[C@H]2[C@](C)(O)[C@@H]3CC[C@@H]4[C@@H](O)[C@@]3(C[C@@H](O)[C@@]21O)C[C@@]4(C)O [Rhodojaponin III, reference compound] |  |  | F.D. (fluorescent displacement rate of ligands) (Wildtype (WT)): 38.52%; IC50 [1]: > 20 µM
C=C1CCC2(C(C)C)CC12 (stereo not drawn) [Sabinene] | > 20 µM | 33.5% | 

Compound | IC50 | inhibition at 20 µM | other results
CCc1ccc(C(=O)NN(C(=O)c2cc(C)cc(C)c2)C(C)(C)C)cc1 [Tebufenozide, reference compound] | > 20 µM | 48.5% | 
CN1COCN(Cc2cnc(Cl)s2)/C1=N\[N+](=O)[O-] [Thiamethoxam, reference compound] | > 20 µM | 44.6% | 
CS/C(C)=N\OC(=O)N(C)SN(C)C(=O)O/N=C(\C)SC [Thiodicarb, reference compound] | > 20 µM | 37.4% | 
COP(=O)(OC)C(O)C(Cl)(Cl)Cl (stereo not drawn) [Trichlorphon, reference compound] |  |  | F.D. (fluorescent displacement rate of ligands) (Wildtype (WT)): 33.61%; IC50 [1]: > 20 µM
O=C(NC(=O)c1ccccc1Cl)Nc1ccc(OC(F)(F)F)cc1 [Triflumuron, reference compound] | > 20 µM | 28% | 
CCCCCCCCCCC=O [Undecanal] | > 20 µM | 27.7% | 
Cc1ccc(C(C)C)cc1 [p-Isopropyl toluene] |  |  | F.D. (fluorescent displacement rate of ligands) (Wildtype (WT)): 32.32%; IC50 [1]: > 20 µM
C/C1=C\CC/C(C)=C/CC(C)(C)/C=C/C1 [α-Caryophyllene] |  |  | F.D. (fluorescent displacement rate of ligands) (Wildtype (WT)): 7.48%; IC50 [1]: > 20 µM
CC1(C)C(C=C(Cl)Cl)C1C(=O)OC(C#N)c1cccc(Oc2ccccc2)c1 (stereo not drawn) [α-Cypermethrin, reference compound] | > 20 µM | 5.65% | 
CC1=CC[C@H](C(C)C)C=C1 [α-Phellandrene] | > 20 µM | 34.1% | 
CC1=CCC2CC1C2(C)C (stereo not drawn) [α-Pinene] | > 20 µM | 34.6% | 
CC1=CC=C(C(C)C)CC1 [α-Terpinene] | > 36 µM | > 40% | 1-NPN fluorescence displaced: less than 50%
CC1=CC[C@@H](C(C)(C)O)CC1 [α-Terpineol] | > 36 µM | > 40% | 1-NPN fluorescence displaced: less than 50%
C=C1CC/C=C(\C)CC[C@@H]2[C@@H]1CC2(C)C [β-Caryophyllene] |  |  | binding with PxutCSP19 (in words): no binding
C=C[C@]1(C)CC[C@@H](C(=C)C)C[C@H]1C(=C)C [β-Elemene] |  |  | binding with PxutCSP19 (in words): no binding
C=C1CCC2CC1C2(C)C (stereo not drawn) [β-Pinene] | > 20 µM | 31.2% | 
CC1=CCC(C(C)C)=CC1 [γ-Terpinene] | > 36 µM | > 40% | 1-NPN fluorescence displaced: less than 50%
Emamectin benzoate [reference compound] |  |  | F.D. (fluorescent displacement rate of ligands) (Wildtype (WT)): 46.98%; IC50 [1]: > 20 µM
Farnesene |  |  | F.D. (fluorescent displacement rate of ligands) (Wildtype (WT)): 23.21%; IC50 [1]: > 20 µM
